The record followed here is ChEMBL document CHEMBL1201862, “PubChem BioAssay data set” (2004).

The source made the active and inactive calls.

One may read the IC50 as the point on the concentration scale where inhibition reaches its midpoint. One may read the AC50 as the concentration at which the activity in the assay is half-maximal.

The nature of assay [1]: nonselective inhibitors of cellular cAMP signaling, dose response, counter-screen for MC4R biased antagonist project, cell-based, TR-FRET cAMP detection (AID 602305).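 Note: U2OS cells stimulated with forskolin near its EC80 as the cAMP inducer; potency is for inhibition of forskolin-stimulated cAMP signaling.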 The class given is functional. Background: The purpose of a counterscreen is to sort out artefacts and off-target activity.
The nature of assay [2]: growth suppression of PTEN-null colon cells, dose response, cell-based, HCT116 PTEN knockout (AID 1047).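 Note: HCT116 colon tumor cells with PTEN knocked out; cells exposed to compound for 60 hours before readout; potency for loss of cell viability measured by luminescence.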 The class given is functional.
For assay [3], the target named is Dual specificity tyrosine-phosphorylation-regulated kinase 1A (Rattus norvegicus, UniProt Q63470). The class given is biochemical, Homo sapiens.
A short description of assay [4]: growth suppression of beta-catenin-knockout colon cells, dose response, cell-based, HCT116, human colon tumor (AID 1045).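 Note: HCT116 colon tumor cells with beta catenin knocked out; cells exposed to compound for 60 hours.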 Format: functional.
The target of assay [5] is Glycogen synthase kinase-3 beta (Homo sapiens, UniProt P49841). The assay can be described thus: Inhibition of Human GSK-3 beta Activity Measured in Biochemical System Using Microfluidics - 2063-05_Inhibitor_Dose_DryPowder_Activity_Set2. [Related pubchem assays (depositor defined):AID2709].
Sequence of Glycogen synthase kinase-3 beta (P49841 whole entry): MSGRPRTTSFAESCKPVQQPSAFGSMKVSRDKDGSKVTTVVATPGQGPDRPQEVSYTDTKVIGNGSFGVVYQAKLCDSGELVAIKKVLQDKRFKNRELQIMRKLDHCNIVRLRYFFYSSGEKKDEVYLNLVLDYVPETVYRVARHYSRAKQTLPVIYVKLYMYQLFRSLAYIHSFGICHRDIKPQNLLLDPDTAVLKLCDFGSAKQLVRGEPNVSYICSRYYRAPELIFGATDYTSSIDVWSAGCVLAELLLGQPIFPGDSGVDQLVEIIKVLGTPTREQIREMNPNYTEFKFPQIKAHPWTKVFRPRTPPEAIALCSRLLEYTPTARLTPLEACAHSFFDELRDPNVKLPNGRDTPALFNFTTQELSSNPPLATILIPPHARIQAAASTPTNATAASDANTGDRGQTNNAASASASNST
For assay [6], the target named is Melanocortin receptor 4 (Homo sapiens, UniProt P32245). Kind of assay: MC4R antagonist potency on cAMP, dose response, cell-based, TR-FRET, biased antagonists (AID 602298).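 Note: antagonist potency against agonist-stimulated cAMP production.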 Format: functional.
Sequence of Melanocortin receptor 4 (P32245 whole entry): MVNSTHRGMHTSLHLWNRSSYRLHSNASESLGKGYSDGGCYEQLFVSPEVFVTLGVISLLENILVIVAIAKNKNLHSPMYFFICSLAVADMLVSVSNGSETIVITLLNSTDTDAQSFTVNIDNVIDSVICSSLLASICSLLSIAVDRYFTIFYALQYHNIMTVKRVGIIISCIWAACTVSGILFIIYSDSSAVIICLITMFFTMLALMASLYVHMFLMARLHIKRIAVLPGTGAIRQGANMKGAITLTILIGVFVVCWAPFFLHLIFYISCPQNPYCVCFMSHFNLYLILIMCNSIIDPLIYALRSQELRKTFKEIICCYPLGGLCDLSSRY
Assay [7] concerns the target Dual specificity protein kinase CLK1 (Homo sapiens, UniProt P49759). The assay can be described thus: CLK1 kinase inhibitors, off-target check, dose response, selectivity assay for Dyrk1A inhibitor project, biochemical, cherry-picked samples (AID 588811).
For assay [8], the target named is Glycogen synthase kinase-3 alpha (Homo sapiens, UniProt P49840). The assay can be described thus: Inhibition of Human GSK-3 alpha Activity Measured in Biochemical System Using Microfluidics - 2063-06_Inhibitor_Dose_DryPowder_Activity_Set2. [Related pubchem assays (depositor defined):AID2709].
Sequence of Glycogen synthase kinase-3 alpha (P49840 whole entry): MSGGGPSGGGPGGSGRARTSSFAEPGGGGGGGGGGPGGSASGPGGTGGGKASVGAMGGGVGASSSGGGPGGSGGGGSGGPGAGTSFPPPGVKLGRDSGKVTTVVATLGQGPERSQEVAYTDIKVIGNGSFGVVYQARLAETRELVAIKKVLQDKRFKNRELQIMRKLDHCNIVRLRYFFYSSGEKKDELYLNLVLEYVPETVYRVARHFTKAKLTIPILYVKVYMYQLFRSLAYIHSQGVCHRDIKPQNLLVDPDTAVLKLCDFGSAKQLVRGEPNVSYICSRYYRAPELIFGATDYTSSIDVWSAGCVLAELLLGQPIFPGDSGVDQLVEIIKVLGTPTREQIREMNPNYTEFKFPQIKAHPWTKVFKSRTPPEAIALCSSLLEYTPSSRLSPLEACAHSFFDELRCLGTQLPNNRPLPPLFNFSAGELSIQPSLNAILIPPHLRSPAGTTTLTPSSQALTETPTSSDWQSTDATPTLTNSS
The target of assay [9] is T1, Hexokinase-1 (Homo sapiens, UniProt P19367).
T1 sequence (P19367 whole entry): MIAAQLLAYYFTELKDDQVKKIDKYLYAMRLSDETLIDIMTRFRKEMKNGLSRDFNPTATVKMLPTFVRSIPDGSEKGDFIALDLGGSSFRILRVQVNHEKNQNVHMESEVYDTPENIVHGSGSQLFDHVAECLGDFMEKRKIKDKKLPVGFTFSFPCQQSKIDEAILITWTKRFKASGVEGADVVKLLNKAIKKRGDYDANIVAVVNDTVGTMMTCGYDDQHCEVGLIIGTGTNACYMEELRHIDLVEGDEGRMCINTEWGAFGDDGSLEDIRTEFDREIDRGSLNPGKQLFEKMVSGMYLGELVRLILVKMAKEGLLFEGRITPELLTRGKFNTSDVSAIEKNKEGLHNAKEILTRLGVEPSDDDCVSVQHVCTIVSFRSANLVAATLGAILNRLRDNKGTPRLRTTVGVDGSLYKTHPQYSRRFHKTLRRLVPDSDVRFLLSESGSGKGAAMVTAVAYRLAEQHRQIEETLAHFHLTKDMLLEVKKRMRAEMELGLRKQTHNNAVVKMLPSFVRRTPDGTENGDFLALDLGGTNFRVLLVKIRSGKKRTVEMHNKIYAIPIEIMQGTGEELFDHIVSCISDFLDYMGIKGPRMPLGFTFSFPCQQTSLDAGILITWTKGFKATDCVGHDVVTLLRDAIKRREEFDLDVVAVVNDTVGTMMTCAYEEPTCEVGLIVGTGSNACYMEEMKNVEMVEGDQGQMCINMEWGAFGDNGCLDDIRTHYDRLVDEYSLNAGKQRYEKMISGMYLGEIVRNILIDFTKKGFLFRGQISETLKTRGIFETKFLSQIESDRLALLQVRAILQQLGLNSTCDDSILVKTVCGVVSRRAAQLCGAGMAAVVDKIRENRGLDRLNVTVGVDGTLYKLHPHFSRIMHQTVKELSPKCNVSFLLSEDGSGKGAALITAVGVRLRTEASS
Kind of assay: SAR analysis of small molecule inhibitors of hexokinase domain containing I (HKDC1) in the hexokinase 1 selectivity assay. [Related pubchem assays (depositor defined):AID493160, AID493190]. Format: functional.

In assay [10] the target is T2, Hexokinase HKDC1 (Homo sapiens, UniProt Q2TB90).
T2 sequence (Q2TB90 whole entry): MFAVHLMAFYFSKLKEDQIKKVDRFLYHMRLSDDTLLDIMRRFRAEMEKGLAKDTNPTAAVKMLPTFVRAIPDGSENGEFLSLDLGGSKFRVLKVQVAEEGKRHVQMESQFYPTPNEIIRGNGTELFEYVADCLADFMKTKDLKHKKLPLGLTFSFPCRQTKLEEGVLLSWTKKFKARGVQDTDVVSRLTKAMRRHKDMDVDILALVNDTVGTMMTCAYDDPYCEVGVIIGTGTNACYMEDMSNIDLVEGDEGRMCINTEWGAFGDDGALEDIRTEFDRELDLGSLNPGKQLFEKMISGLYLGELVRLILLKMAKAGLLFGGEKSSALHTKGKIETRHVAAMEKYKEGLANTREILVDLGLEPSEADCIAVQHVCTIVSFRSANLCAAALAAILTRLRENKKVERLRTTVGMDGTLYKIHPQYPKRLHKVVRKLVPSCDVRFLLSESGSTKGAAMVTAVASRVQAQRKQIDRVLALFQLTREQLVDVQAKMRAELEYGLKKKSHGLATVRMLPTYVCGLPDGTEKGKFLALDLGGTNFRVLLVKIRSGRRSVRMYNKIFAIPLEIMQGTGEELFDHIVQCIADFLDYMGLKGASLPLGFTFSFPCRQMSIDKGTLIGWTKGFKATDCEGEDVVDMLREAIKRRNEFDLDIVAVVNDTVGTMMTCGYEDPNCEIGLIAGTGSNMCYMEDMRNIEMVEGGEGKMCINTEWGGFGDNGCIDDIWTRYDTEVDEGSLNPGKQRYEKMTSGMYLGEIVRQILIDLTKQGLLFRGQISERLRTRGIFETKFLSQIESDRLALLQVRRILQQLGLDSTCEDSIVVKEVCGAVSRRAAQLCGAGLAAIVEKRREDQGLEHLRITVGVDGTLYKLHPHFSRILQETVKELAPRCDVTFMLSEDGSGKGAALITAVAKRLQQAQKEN
Kind of assay: SAR analysis of small molecule inhibitors of hexokinase domain containing I (HKDC1). [Related pubchem assays (depositor defined):AID493160, AID493190]. Format: functional.

Assay [11] concerns H4. Kind of assay: inhibitors of control reporter signal in H4 cells – cell-based, plate reader, dry powder samples, counter-screen for prion reporter project, dose response (AID 540255). The conditions noted are these: Homo sapiens. The class given is functional.
The nature of assay [12]: inhibitors of clade B AD8 Env fusion, dose response, cell-based, cherry-pick (AID 652062).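 Note: luciferase signal from cell-cell fusion driven by HIV-1 clade B AD8 Env; potency is for inhibitors of fusion seen as a drop in luminescence.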 Format: functional.
Assay [13] in a line: MC4R antagonists, dose response, counter-screen for LGR2 antagonist project, cell-based, plate reader, cherry pick (AID 743444).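 Note: transfected HEK 293 cells stimulated with alpha-MSH peptide; potency of inhibitors of the alpha-MSH evoked signal.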 Format: functional.
Assay [14] concerns H4. Kind of assay: Inhibitors of Prion Protein 5' UTR mRNA Measured in Cell-Based System Using Plate Reader - 2078-01_Inhibitor_Dose_DryPowder_Activity. [Related pubchem assays (depositor defined):AID488894]. Format: functional. The conditions noted are these: Homo sapiens.
In assay [15] the target is Paired box protein Pax-8 (Homo sapiens, UniProt Q06710). The assay can be described thus: inhibitors of PAX8-driven TPO luciferase reporter, dose response, RMG-I cells, cherry-pick (AID 687027).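 Note: luciferase reporter driven by Pax8 target thyroperoxidase promoter measured by SteadyGlo luminescence.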 The class given is functional, cell-based. For orientation: In a reporter assay the amount or activity of a reporter protein is the signal.
Sequence of Paired box protein Pax-8 (Q06710 whole entry, the tested form may be a part): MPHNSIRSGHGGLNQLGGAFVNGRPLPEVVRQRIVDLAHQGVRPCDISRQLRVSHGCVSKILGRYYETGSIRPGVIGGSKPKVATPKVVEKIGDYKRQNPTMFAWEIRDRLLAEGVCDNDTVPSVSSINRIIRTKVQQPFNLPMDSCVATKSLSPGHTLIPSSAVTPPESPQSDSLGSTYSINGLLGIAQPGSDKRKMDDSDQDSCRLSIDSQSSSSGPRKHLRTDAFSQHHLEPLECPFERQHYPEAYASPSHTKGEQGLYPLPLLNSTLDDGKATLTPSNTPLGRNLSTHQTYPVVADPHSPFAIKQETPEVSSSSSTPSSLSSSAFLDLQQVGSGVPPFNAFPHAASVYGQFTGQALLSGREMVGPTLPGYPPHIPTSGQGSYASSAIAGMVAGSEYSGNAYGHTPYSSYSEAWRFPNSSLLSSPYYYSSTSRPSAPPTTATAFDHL
Assay [16] can be described thus: inhibitors of HIV Env-driven cell fusion, dose response, cherry-pick (AID 652057). Format: functional, cell-based.
Assay [17] addresses Luciferin 4-monooxygenase (Photinus pyralis, UniProt P08659). Kind of assay: firefly luciferase enzyme inhibitors, dose response, biochemical, dry powder samples, plate reader (AID 588451).
Assay [18] relates to H4. Kind of assay: Amyloid Precursor 5' UTR neuroblastoma cell reporter line Measured in Cell-Based System Using Plate Reader - 2078-04_Inhibitor_Dose_DryPowder_Activity. [Related pubchem assays (depositor defined):AID488894]. The class given is functional. The conditions noted are these: Homo sapiens.
The nature of assay [19]: off-target signal loss in HeLa-CEM21 co-culture – HeLa F-luc CTL cells, cherry-picked, counter-screen for HIV-1 Env fusion inhibitor project, dose response (AID 652040).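 Note: potency for signal decrease marking cytotoxic or nonspecific inhibition.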 The class given is functional, cell-based.
A short description of assay [20]: Luminescence-based counterscreen assay for KLF5 inhibitors: dose response cell-based high throughput screening assay to identify cytotoxic compounds using the IEC-6 intestinal epithelial cell line. [Related pubchem assays: 1700 (Primary screen.), 1834 (Confirmation screen.), 1858 (Summary AID.), 1905 (Counterscreen.)]. Format: functional.
In assay [21] the test system is Jurkat. Kind of assay: antigen receptor-induced NF-kB inhibitors, dose response, Jurkat, luciferase reporter, luminescence, B- and T-cell (AID 489004).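 Note: NF-kB luciferase reporter Jurkat cells stimulated with PMA plus ionomycin.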 The conditions noted are these: Homo sapiens. The class given is functional, cell-based.
Assay [22] can be described thus: cytotoxicity in HEK-293T NF-kB-Luc cells, dose response, cytotoxicity control for B/T-cell NF-kB inhibitor project, cell-based, uHTS hits (AID 489019).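 Note: IC50 reflects cytotoxicity as loss of cell viability.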 The class given is functional.
The nature of assay [23]: ZM109 Env clade C HIV-1 fusion inhibitors, dose response, HeLa effector, CEM target cells, luciferase, cherry-pick (AID 652058). Format: functional, cell-based.
The nature of assay [24]: LGR2 antagonists, dose response, cell-based, HEK293, CRE-luciferase reporter, cherry pick, set 2 (AID 743343).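 Note: transfected cells were stimulated with diluted bursicon conditioned medium after compound addition.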 Format: functional.
Assay [25] has as its target Multidrug resistance protein CDR1 (Candida albicans, UniProt P43071). The assay can be described thus: CaCdr1 efflux pump inhibitor potency, dose response, singleplex, Cherry Pick2 set (AID 623996). The class given is functional. The conditions noted are these: read-out: EC50_MICROM.
Assay [26] concerns the target Benomyl/methotrexate resistance protein (Candida albicans, UniProt P28873). The assay can be described thus: CaMdr1 efflux pump inhibitor potency, dose response, singleplex, Cherry Pick1 hits (AID 588608). Format: functional.
The target in assay [27] is Platelet-activating factor acetylhydrolase 2, cytoplasmic (Mus musculus, UniProt Q8VDG7). The assay can be described thus: Late stage assay provider results from the probe development effort to identify inhibitors of PAFAH2: Fluorescence-based biochemical gel-based Activity-Based Protein Profiling (ABPP) IC50. [Related pubchem assays (depositor defined):AID492956, AID492969, AID493030].
Sequence of Platelet-activating factor acetylhydrolase 2, cytoplasmic (Q8VDG7 whole entry): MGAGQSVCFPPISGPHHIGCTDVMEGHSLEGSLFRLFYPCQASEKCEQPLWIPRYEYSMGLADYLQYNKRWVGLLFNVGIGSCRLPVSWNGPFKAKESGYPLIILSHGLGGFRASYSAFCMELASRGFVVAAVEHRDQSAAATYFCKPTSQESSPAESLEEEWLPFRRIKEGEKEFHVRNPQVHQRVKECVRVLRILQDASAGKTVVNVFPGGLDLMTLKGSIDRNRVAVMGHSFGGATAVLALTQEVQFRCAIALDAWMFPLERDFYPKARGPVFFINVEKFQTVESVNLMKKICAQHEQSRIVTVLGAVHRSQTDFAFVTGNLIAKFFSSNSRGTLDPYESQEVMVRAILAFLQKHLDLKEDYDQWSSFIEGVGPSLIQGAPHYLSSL

Sequence of Benomyl/methotrexate resistance protein (P28873 whole entry): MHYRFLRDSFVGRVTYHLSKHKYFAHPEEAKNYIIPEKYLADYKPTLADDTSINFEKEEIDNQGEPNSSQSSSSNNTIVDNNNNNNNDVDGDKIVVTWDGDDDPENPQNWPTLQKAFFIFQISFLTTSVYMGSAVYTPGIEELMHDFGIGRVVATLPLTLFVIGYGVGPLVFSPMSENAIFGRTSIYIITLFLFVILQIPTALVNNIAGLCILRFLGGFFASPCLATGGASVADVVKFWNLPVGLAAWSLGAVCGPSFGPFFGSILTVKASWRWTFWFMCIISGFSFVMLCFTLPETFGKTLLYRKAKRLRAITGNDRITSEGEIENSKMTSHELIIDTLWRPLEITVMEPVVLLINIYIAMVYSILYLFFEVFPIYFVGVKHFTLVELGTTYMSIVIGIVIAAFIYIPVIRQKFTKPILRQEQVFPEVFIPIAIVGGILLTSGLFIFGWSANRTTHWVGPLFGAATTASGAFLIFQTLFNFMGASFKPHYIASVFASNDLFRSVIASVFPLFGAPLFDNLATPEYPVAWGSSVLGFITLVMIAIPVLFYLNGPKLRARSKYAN
Sequence of Multidrug resistance protein CDR1 (P43071 whole entry, looked up): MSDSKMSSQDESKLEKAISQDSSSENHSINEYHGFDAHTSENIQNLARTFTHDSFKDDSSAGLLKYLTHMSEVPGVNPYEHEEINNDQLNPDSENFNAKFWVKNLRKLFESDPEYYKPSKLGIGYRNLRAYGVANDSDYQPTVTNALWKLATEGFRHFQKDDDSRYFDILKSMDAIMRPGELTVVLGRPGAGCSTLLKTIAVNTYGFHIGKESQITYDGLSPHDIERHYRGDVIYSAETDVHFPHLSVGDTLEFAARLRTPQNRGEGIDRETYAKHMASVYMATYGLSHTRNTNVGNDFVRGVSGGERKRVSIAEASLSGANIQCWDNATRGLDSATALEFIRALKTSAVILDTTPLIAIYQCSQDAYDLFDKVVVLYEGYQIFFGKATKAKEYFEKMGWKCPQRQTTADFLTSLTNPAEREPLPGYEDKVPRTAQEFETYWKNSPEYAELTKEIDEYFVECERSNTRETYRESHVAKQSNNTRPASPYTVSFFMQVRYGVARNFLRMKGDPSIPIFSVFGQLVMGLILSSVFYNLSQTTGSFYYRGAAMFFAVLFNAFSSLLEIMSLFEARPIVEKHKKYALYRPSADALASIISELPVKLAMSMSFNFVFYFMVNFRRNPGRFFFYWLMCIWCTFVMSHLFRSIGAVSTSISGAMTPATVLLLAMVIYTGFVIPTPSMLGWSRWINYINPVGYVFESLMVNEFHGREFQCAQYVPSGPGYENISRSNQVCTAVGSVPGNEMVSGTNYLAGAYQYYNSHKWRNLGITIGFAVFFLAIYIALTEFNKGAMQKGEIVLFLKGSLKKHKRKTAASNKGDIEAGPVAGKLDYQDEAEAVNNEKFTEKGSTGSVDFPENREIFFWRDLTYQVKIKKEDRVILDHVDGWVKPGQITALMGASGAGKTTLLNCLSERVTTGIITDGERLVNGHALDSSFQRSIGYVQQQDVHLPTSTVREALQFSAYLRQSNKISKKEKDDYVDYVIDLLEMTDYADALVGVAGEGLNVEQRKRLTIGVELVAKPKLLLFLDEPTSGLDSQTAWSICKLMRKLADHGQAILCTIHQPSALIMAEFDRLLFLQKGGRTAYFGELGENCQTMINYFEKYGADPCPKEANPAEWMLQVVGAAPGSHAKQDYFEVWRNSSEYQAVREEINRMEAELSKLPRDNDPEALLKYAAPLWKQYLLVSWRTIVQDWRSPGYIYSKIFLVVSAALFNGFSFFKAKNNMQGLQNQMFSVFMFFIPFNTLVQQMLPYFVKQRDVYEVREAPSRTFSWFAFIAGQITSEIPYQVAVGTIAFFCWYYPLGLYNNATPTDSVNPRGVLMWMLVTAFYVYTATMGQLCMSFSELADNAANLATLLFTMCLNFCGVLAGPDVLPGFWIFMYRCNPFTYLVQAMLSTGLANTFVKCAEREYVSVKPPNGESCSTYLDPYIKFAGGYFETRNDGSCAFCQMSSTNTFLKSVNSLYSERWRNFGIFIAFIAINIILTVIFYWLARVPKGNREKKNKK
Sequence of Luciferin 4-monooxygenase (P08659 whole entry): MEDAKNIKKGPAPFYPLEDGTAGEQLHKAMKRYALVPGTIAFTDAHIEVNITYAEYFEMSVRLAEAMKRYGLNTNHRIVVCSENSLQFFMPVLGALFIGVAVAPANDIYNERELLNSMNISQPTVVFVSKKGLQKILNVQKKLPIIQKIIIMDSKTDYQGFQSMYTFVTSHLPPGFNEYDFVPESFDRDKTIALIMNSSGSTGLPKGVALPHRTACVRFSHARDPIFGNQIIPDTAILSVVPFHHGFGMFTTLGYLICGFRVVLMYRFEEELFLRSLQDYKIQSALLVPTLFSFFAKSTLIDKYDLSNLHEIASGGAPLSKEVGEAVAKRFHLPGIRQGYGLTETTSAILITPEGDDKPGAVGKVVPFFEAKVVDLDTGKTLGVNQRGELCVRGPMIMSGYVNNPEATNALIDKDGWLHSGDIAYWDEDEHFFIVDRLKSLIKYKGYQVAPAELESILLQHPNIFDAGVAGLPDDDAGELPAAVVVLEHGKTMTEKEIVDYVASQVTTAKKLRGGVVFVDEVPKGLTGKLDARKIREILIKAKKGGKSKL

On to `CCOC(=O)c1ccc2ncc(C(=O)OCC)c(Nc3ccc(N4CCOCC4)cc3)c2c1`, for which the IC50 in [1] is > 64.6 µM (inactive); in assay [6], 8.67 µM (active). Also, the EC50 in assay [2] is 18.5 µM (active); in assay [4] it was 21.4 µM (active). Moreover, the half-maximal activity concentration (AC50) is 0.257 µM (active) in [3], 1.16 µM (active) in assay [5], 0.227 µM (active) in assay [7] and 3.56 µM (active) in [8].

On to `Cc1ccccc1/C=C\c1nc2ccccc2c(=O)n1Cc1ccccc1`, for which the IC50 in assay [9] and in [10] was > 80 µM (inactive) throughout.

Turning to `O=C(Nc1cccc(C(=O)O)c1)Nc1ccc2c(c1)OCO2`, the AC50 was 1.97 µM (active) in assay [11]; 2.74 µM (active) in assay [12]; 1.47 µM (active) in [13]; 0.333 µM (active) in assay [14]; 5.13 µM (active) in assay [15]; 0.605 µM (active) in assay [16]. Besides, the concentration at half-maximal activity (AC50) is 3.34 µM (active) in assay [17]; 0.145 µM (active) in [18]; 1.81 µM (active) in [19]; 5.37 µM (active) in assay [23]; 1.53 µM (active) in [24]. The IC50 in assay [20] was > 39.8 µM (not active); in assay [21] it was 1.77 µM (active); in assay [22] it was > 80 µM (inactive).

On to `COc1ccc(S(=O)(=O)N(C)C[C@H]2Oc3c(NC(=O)NC4CCCCC4)cccc3C(=O)N([C@H](C)CO)C[C@@H]2C)cc1`, for which the EC50 in [25] is 10.4 µM (active); in [26] it was 10.1 µM (active).

For `O=C(N1CCCC1)n1ncc(-c2ccc(Oc3ccccc3)cc2)n1`, the half-maximal inhibitory concentration (IC50) in assay [27] was 0.002 µM (active).
